# From US6387395B1, “N-[1, (1-1) -dialkyloxy] - and N- [1, (1-1) -dialkenyloxy]- alk-1-yl-N,N,N-tetrasubstituted ammonium lipids and uses therefor” (priority 1985, dated 2002)
# Experiments:
# [1] = test system: Vero cells; assay: Protein synthesis ([3H]leucine) in cells treated with DOTMA liposomes / 2-5A analog; type: cell-based; settings: 6 hours incubation, alone (no DOTMA); 2-5A analog at 10^−6 M
# Excerpt: Oligoadenylates of the general structure ppp(A2′p)nA, n≧2, are referred to as “2-5A”. 2-5A molecules are well known, to those skilled in the art, to bind to an intracellular endonuclease resulting in activation of the endonuclease with subsequent cleavage of ribosomal and messenger RNA, resulting in inhibition of protein synthesis. […] A calcium phosphate coprecipitation technique can be employed to artificially introduce 2-5A into cells, which can be monitored by inhibition of protein synthesis. […] The solutions were then removed by aspiration, the cells were labelled for 90 minutes with [^3H] leucine (1 μCi/0.5 ml/well), and the trichloroacetic acid (TCA)-precipitable radioactivity was determined after incubating 30 minutes with cold 10% TCA, washing, harvesting the cells with 0.1 M NaOH, neutralizing with HCl, and quantitating the radioactivity by liquid scintillation counting. […] However, the calcium phosphate treatment was very toxic to the cells, as determined from their morphology as well as approximately up to 40% reduction in protein synthesis of the cells receiving only the calcium phosphate treatment but no 2-5A.
# Cells were incubated and protein synthesis was determined as described above except that the 60 mM CaCl2 was not included. […] In another test, cells were incubated with samples for 2, 6, or 18 hours and protein synthesis was determined as described above.
# [2] = Solubility of drug in phosphate buffered saline; type: physicochemical
# Experimental: For example, 1-[4-(4-chlorophenyl)-2-(2,6-dichlorophenylthio)-n-butyl] imidazole nitrate without the presence of any of the compounds of this invention is insoluble in aqueous buffer (phosphate buffered saline, pH 7.4).
# A 0.3% soluble preparation of the above drug was prepared using the following method:
# 18 mg of 1-[4-(4-chlorophenyl)-2-(2,6-dichlorophenylthio)-n-butyl] imidazole nitrate and 482 mg of N-(2,3-di-(9-(Z)-octadecenyloxy)-prop-1-yl-N,N,N-trimethylammonium chloride were dissolved in methylene dichloride. The methylene dichloride was evaporated under a stream of nitrogen and the dried film placed under vacuum overnight. The dried film was suspended in 6 ml phosphate buffered saline, pH 7.4, and sonicated to clarity.
# [3] = DNA-lipid complex formation on sucrose density gradient; type: physicochemical; settings: lipid mixed with DNA at a ratio of 5:1 (wt:wt), gentle mixing
# Excerpt: DNA interacts spontaneously with solutions of DOTMA to form lipid-DNA complexes. This complex formation is due presumably to ionic interactions between the positively charged group on the DOTMA molecule and the negatively charged phosphate groups on the DNA. Complex formation was examined using a sucrose density gradient (not shown). In the absence of lipid, DNA migrated to the bottom of the gradient while lipid, in the absence of DNA, floated at the top. When lipid was mixed with DNA at a ratio of 5:1 (wt:wt) all the DNA migrated with the lipid. The association of 100% of the DNA with DOTMA after gentle mixing contrasts with conventional liposome encapsulation procedures which usually entrap less than 10% of the DNA, require an additional purification step to remove unencapsulated DNA or involve potentially destructive conditions such as vigorous agitation or sonication.
# [4] = test system: CV-1 cells; assay: Transient transfection with pSV2CAT, CAT activity; type: cell-based, monkey; settings: CV-1 and COS 7 cells
# Experimental: (§1) (a) Formation of the lipid-DNA complexBoth DNA and lipid are diluted to 1.5 ml each with HBS (150 mM NaCl, 20 mM Hepes pH 7.4) and then mixed. The DNA lipid complexes form immediately. A typical transfection would use 1 to 10 μg DNA and 100 μg of total lipid (DOTMA:PE, 1:1).
# (§2) (b) Treatment of cells—Just confluent 100 mm tissue culture plates of cells are washed 2× with 5 ml of HBS and 3 ml of the DNA-lipid solution is added. The cells are incubated for 3-5 hours at 37° and then 10 ml of DMEM+10% fcs is added. After incubation for 16 hours at 37° the medium is replaced with 10 ml fresh medium and cells are harvested by scraping 2-3 days later. Cell extracts were prepared and CAT assays performed as previously described. For stable transfections 50% confluent cells were treated as above except that 2 days after transfection cells were passaged and grown in selective medium for either neomycin resistance (0.4 mg/ml G418) or E. coli XGPRT expression.
# (§3) Cells were transfected with calcium phosphate precipitated DNA as described with the addition of a glycerol shock. Similarly cells were transfected with the DEAE-dextran method as described.
# Cells transfected with the plasmid pSV2CAT express CAT enzyme activity that can be measured in cell extracts 2 days after transfection. […]
# [5] = test system: mouse L-cells; assay: DNA transfection of mouse L-cells; type: cell-based
# Experimental: as §1
# as §2, with “The cells are incubated for 3-5 hours at 37° and then 10 ml of DMEM+10% fcs is added.” left out
# [6] = test system: JZ.1 cells; assay: Transient transfection with pSV2CAT, CAT activity; type: cell-based, rat
# Experimental: as §1, §2, §3
# [7] = test system: mouse L-cells; assay: Cytotoxicity of dsRNA introduced into cells (trypan blue viability); type: cell-based
# Excerpt: Interferon treatment of various cells including both mouse and human cells results in induction of an enzyme, 2-5A synthetase, which when activated by double stranded RNA produces 2-5A. 2-5A is a polymer of ATP that contains unique 2′-5′ linkages rather than the standard 3′-5′ linkages. 2-5A is effectively a communication molecule which activates a latent 2′-5′ endonuclease resulting in degradation of cellular mRNA. […] In the presence of double stranded RNA, 2-5A is produced and can be produced in sufficient concentrations to degrade the majority of the cellular RNA, including ribosomal RNA, resulting in cell death. In this respect, this system can be used as cytotoxic assay to analyze the capacity of a compound to introduce double stranded RNA into the cytoplasm of a cell. The double stranded RNA commonly used is poly IC, a commercially available compound which is used experimentally and classically to induce interferon by methods well known to those familiar in the art. Poly IC will not penetrate cells and cause cytotoxic effects alone, but requires a vehicle to help carry it across the cell membrane. The most common agent used for this purpose is DEAE dextran in experimental cell culture systems and a complex of carboxymethyl cellulose and polylysine in clinical use. […]
# [8] = test system: Vero or L929 cells; assay: Inhibition of protein synthesis ([3H]leucine) by 2-5A, calcium phosphate coprecipitation; type: cell-based
# Excerpt: Oligoadenylates of the general structure ppp(A2′p)nA, n≧2, are referred to as “2-5A”. 2-5A molecules are well known, to those skilled in the art, to bind to an intracellular endonuclease resulting in activation of the endonuclease with subsequent cleavage of ribosomal and messenger RNA, resulting in inhibition of protein synthesis. […] A calcium phosphate coprecipitation technique can be employed to artificially introduce 2-5A into cells, which can be monitored by inhibition of protein synthesis. Thus 10^−5 to 10^−9 M 2-5A was added to a solution of 120 mM CaCl2, which was then added dropwise into bubbled Hepes buffered saline, pH 7.05 (8.0 g NaCl, 0.37 g KCl, 0.125 g Na2HPO4″2H2O, 1.0 g glucose, and 5.0 g Hepes per liter). A final sample volume of 0.5 ml was added to quadruplicate wells of Costar 24 well plates containing confluent Vero or L929 cells. After 45 minutes at room temperature, an additional 0.5 ml of media was added to each well and incubated an additional 90 minutes at 37° C. The solutions were then removed by aspiration, the cells were labelled for 90 minutes with [^3H] leucine (1 μCi/0.5 ml/well), and the trichloroacetic acid (TCA)-precipitable radioactivity was determined after incubating 30 minutes with cold 10% TCA, washing, harvesting the cells with 0.1 M NaOH, neutralizing with HCl, and quantitating the radioactivity by liquid scintillation counting. […] 50%-maximal inhibition occurred at approximately 10^−9 M 2-5A. However, the calcium phosphate treatment was very toxic to the cells, as determined from their morphology as well as approximately up to 40% reduction in protein synthesis of the cells receiving only the calcium phosphate treatment but no 2-5A.
# [9] = test system: MSN610.2 cells; assay: Stable transfection frequency (drug resistant colonies); type: cell-based, rat; settings: MSN610.2, pSV2neo 1 μg with 10 μg carrier DNA
# Experimental: (§4) (b) Treatment of cells—Just confluent 100 mm tissue culture plates of cells are washed 2× with 5 ml of HBS and 3 ml of the DNA-lipid solution is added. The cells are incubated for 3-5 hours at 37° and then 10 ml of DMEM+10% fcs is added. After incubation for 16 hours at 37° the medium is replaced with 10 ml fresh medium and cells are harvested by scraping 2-3 days later. Cell extracts were prepared and CAT assays performed as previously described.
# as §3
# [10] = test system: TA1 cells; assay: as above; type: cell-based, murine
# Experimental: as §4, §3
# [11] = test system: L-TK cells; assay: as above; type: cell-based, murine; settings: pSV2neo 1 μg with 10 μg carrier DNA
# Experimental: as §4, §3
# [12] = test system: Ψ2 cells; assay: as above; type: cell-based, murine
# Experimental: as §4, §3
compound,measurement,setting,value
"5′-triphosphophoryladenylyl-(2′→5′)adenylyl-(2′→5′)adenylyl-(2′→6′)(3′-aza-N-hexyl-1′,2′,3′,4′-tetradeo xyhexopyranos-1′-yl)adenine [2-5A analog]",% of protein synthesis of untreated cells,[1],82±14%
"Clc1ccc(CCC(Cn2ccnc2)Sc2c(Cl)cccc2Cl)cc1.O=[N+]([O-])O (stereo not shown) [1-[4-(4-chlorophenyl)-2-(2,6-dichlorophenylthio)-n-butyl] imidazole nitrate]",soluble preparation of drug,"[2]; 18 mg drug with 482 mg DOTMA in 6 ml phosphate buffered saline pH 7.4, sonicated to clarity",0.3%
same,solubility in aqueous buffer,"[2]; phosphate buffered saline, pH 7.4, without compounds of the invention",insoluble
"CCCCCCCC/C=C\CCCCCCCCOCC(C[N+](C)(C)C)OCCCCCCCC/C=C\CCCCCCCC.[Cl-] (stereo not shown) [DOTMA, N-(2,3-di(9-(Z)-octadecenyloxy))-prop-1-yl-N,N,N-trimethylammonium chloride]",DNA associated with lipid,[3],100%
same,fold increase in CAT activity relative to transient transfection with DEAE-dextran,[4],6-11 fold
same,CAT activity (% of control),[5]; serum present from the outset,less than 5%
same,fold enhancement over the DEAE-dextran procedure,[6],≥ 80 fold
CCCCCCCCCCCCCCCCCC[N+](C)(C)CCCCCCCCCCCCCCCCCC.[Br-] [dioctadecyl dimethyl ammonium bromide],efficacy as mediators of DNA transfection,[5],little efficacy
CCCCCCCCCCCCCCCCCCN [stearylamine],efficacy as mediators of DNA transfection,[5],little efficacy
Poly IC,Cell Survival,"[7]; 1 million cells, 24 hrs treatment, trypan blue",100%
same,frequency of surviving cells,[7]; poly IC introduced by the DOTMA lipid,1×10^−6
calcium phosphate,% of protein synthesis of untreated cells,[1],64±3%
same,reduction in protein synthesis,"[8]; calcium phosphate treatment only, no 2-5A",up to 40%
same,Frequency × 10^5,[9],1.3
same,Frequency × 10^5,"[10]; TA1, pMSGC5a 7 μg",1.3
same,Frequency × 10^5,"[10]; TA1, pSV2neo 1 μg with 10 μg carrier DNA",2
same,Frequency × 10^5,"[10]; TA1, pZIPSVX 7 μg",0.7
same,Frequency × 10^5,[11],3
same,Frequency × 10^5,"[12]; Ψ2, pZIPC5a 7 μg",1.8
same,Frequency × 10^5,"[12]; Ψ2, pZIPSVX 7 μg",0.6
ppp(A2′p)2A,IC50,"[8]; after the calcium-phosphate precipitation technique, read-out: 50%-maximal inhibition of protein synthesis",~1 nM
same,inhibition of protein synthesis,"[8]; all concentrations, without calcium phosphate coprecipitation",no inhibition of protein synthesis
